Measured values as given in patent US8883856B2, “Compositions and methods for the treatment of inflammatory diseases using topoisomerase inhibitors” (priority 2000, dated 2014).
Like-named read-outs stand apart in the source and are kept apart here.

Legend:
[1] = tested on: synoviocytes (HIG.82 rabbit); experiment: MTT proliferation/cytotoxicity assay, synoviocytes; type: cell-based; conditions: Oryctolagus cuniculus, read-out: inhibitory concentration that gave 50% effect on proliferation (IC50), synoviocytes
Experimental: (§1) Proliferation was determined using the MTT proliferation/cytotoxicity assay.
(§2) On day one, 1500-2000 smooth muscle cells (A7r5 rat embryonic thoracic aorta) or synoviocytes (HIG.82 rabbit) were plated per well on a 96-well plate, leaving the first column free of cells (blank). The plate was placed back into the 37° C., CO2 incubator. The following day camptothecin was added at various concentrations. No drugs were added to the first column (blank) and the second column (untreated column) for control. The cells were exposed for 24, 48, and 72 hours. At the end of the exposure period, 50 μl of dimethylthiazol diphenyltetrazolium bromide salt (MTT) dissolved in media was added and allowed to incubate for 4 hours at 37° C. The medium was then aspirated and 200 μl of dimethyl sulfoxide was added. The plate was agitated for 30 minutes and the absorbance read at 562 nm. The optical density measurement was converted to number of cells using a standard plot of optical density with known number of cells and cell viability was expressed as % growth (this value is the % of the control cells).

[2] = tested on: smooth muscle cells (A7r5 rat embryonic thoracic aorta); experiment: MTT proliferation/cytotoxicity assay, smooth muscle cells; type: cell-based; conditions: read-out: inhibitory concentration that gave 50% effect on proliferation (IC50), smooth muscle cells
Experimental: as §1, §2

[3] = tested on: chorioallantoic membrane of the chick embryo; experiment: Angiogenesis in the chick chorioallantoic membrane (CAM assay); type: in vivo; conditions: for number of eggs (CAM's) with antiangiogenic activity Partial (score 1-2) / number of eggs (CAM's) with antiangiogenic activity None (score 0) / number of eggs (CAM's) with antiangiogenic activity Maximal (score 3): 48 hours
Text: Sheets of sterile waxed paper were placed onto the window that was created in the air space and were used to prevent contamination and dehydration of the egg contents. These sheets, measuring 4 cm×4 cm, were sterilized by spraying them with 70% ethanol and allowing them to dry in the laminar flow hood. […] Using 70% ethanol and Kimwipes, the entire eggshell was wiped down to help clean and sanitize the outside of the egg. Inside a laminar flow hood, the egg was held with the blunt side up and a hole was made in the blunt end of the egg by carefully cracking the shell with the end of forceps. The shell remnants were gently removed with forceps to form a hole in the blunt end. This circular hole was made as large as 2 to 3 cm in diameter without damaging the inner membrane. Once the hole was created in the shell, the inner shell membrane (which houses the egg contents) was gently torn and removed using the forceps, taking care not to damage the chorioallantoic membrane (CAM) (which houses the yolk and developing chick embryo). The hole was then covered with the sheet of sterilized parafilm wax paper by gently stretching the parafilm and then placing it around the hole. The egg was then placed in the egg rack in the incubator (37° C.) and positioned in such a way as to prevent rotation. After 6 days each egg was removed one by one from the incubator (blunt side up), and the parafilm covering the window was removed for direct access to the CAM, which originates from the hind gut of the embryo. The drug-loaded polymer was placed onto the growing capillary bed of the CAM. The egg contents were then resealed with the parafilm sheet and placed back into the 37° C. incubator. […] The values of the avascular scale describe the following: […]

collagenase gene = experiment: IL-1 induced collagenase gene expression in chondrocytes; type: cell-based, calf
Text: This assay measures the levels of RNA for the two metalloproteinases, collagenase and stromelysin. Over-expression of these genes results in excessive synthesis and secretion of these two enzymes from articular chondrocytes and may represent part of the pathophysiology of rheumatoid arthritis. Agents that inhibit over-expression of collagenase and stromelysin can be antiarthritc agents. […] Proteoglycan gene expression is part of the normal physiology of chondrocytes.
Primary chondrocyte culture was freshly isolated from calf cartilage. The cells were plated (at 2.5×10^6/mL) in 100×20 mm culture dishes and incubated in Ham's F12 medium containing 5% fetal bovine serum (FBS) overnight at 37° C. The cells were starved with serum-free medium overnight. […] Then IL-1 (20 ng/mL) was added to each plate and the plates were incubated for an additional 18 hours. Total RNA was isolated by the acidified guanidine isothiocyanate method and subjected to electrophoresis on a denatured gel. Denatured RNA samples (15 ug) were analyzed by gel electrophoresis in a 1% denaturing gel, transferred to a nylon membrane, and hybridized respectively with the ^32P-labelled collagenase cDNA probe, ^32P-labelled stromelycin cDNA probe, ^32P-labelled proteoglycan cDNA probe and ^32P-labelled glyceraldehyde phosphate dehydrogenase (PAGDH) cDNA. The PAGDH levels acted as an internal standard to ensure roughly equal loading. The experimental results on X-ray films were scanned and analyzed with HP ScanJet.

[4] = summary over all concentrations tested in PCL or PCL-MePEG pellets

Structure (SMILES) | IC50 ([1]; 48 hours exposure) | IC50 ([2]; A7R5, 48 hours exposure) | number of eggs (CAM's) with antiangiogenic activity Partial (score 1-2) ([3]; 2.0% w/w in PCL pellet) | inhibition of angiogenesis in the CAM, in words [3, 4] | IL-1 induced collagenase gene expression (collagenase gene; 1×10^−5 M) | number of eggs (CAM's) with antiangiogenic activity Partial (score 1-2) ([3]; 1.0% w/w in PCL pellet) | number of eggs (CAM's) with antiangiogenic activity None (score 0) ([3]; 1.0% w/w in PCL pellet) | number of eggs (CAM's) with antiangiogenic activity None (score 0) ([3]; 4.0% w/w in PCL pellet) | number of eggs (CAM's) with antiangiogenic activity Partial (score 1-2) ([3]; 4.0% w/w in PCL pellet) | number of eggs (CAM's) with antiangiogenic activity Partial (score 1-2) ([3]; 0.5% w/w in PCL pellet) | number of eggs (CAM's) with antiangiogenic activity Partial (score 1-2) ([3]; 5.0% w/w in PCL pellet) | other results
CC1=CC(=O)c2ccccc2C1=O [menadione] | 15 µM | 8.2 µM | Necrosis | partial inhibition of angiogenesis in a number of CAM's | inhibited | – | – | – | – | – | – | generalized cytotoxicity in the CAM ([3]; drug-loaded PCL pellets): some evidence of necrosis in non-capillary cells and membrane thinning
CC1=CC(=O)c2c(O)cccc2C1=O [plumbagin] | 3.6 µM | 2.6 µM | – | partial inhibition of angiogenesis in a number of CAM's | completely inhibited | Necrosis | – | – | – | – | – | generalized cytotoxicity in the CAM ([3]; in vivo): some evidence of necrosis in non-capillary cells and membrane thinning
CC1(C)CCC2=C(O1)c1ccccc1C(=O)C2=O [beta-lapachone] | 5.6 µM | 6.3 µM | – | inhibited angiogenesis in almost all CAM's | almost completely inhibited | 2 | 4 | 4 | 11 | – | – | number of eggs (CAM's) with antiangiogenic activity Maximal (score 3) ([3]; 4.0% w/w in PCL pellet): 6; inhibition of angiogenesis in the CAM, in words ([3]; 6% w/w in PCL): partial to full inhibition of angiogenesis; number of eggs (CAM's) with antiangiogenic activity Partial (score 1-2) ([3]; 60% in PCL pellet as printed): 10
COc1cc([C@@H]2c3cc4c(cc3[C@@H](O[C@@H]3O[C@@H]5CO[C@@H](C)O[C@H]5[C@H](O)[C@H]3O)[C@H]3COC(=O)[C@H]23)OCO4)cc(OC)c1O [etoposide] | ~15 µM | ~15 µM | – | inhibited angiogenesis in almost all CAM's treated | inhibited | – | – | 2 | 5 | – | – | number of eggs (CAM's) with antiangiogenic activity Partial (score 1-2) ([3]; 8.0% w/w in PCL pellet): 5; number of eggs (CAM's) with antiangiogenic activity Maximal (score 3) ([3]; 15.0% w/w in PCL pellet): 4; number of eggs (CAM's) with antiangiogenic activity Partial (score 1-2) ([3]; 15.0% w/w in PCL pellet): 9; number of CAM's showing full inhibition ([3]; all etoposide pellets (4%, 8%, 15% PCL; 10% PCL-MePEG)): five
COc1cccc2c1C(=O)c1c(O)c3c(c(O)c1C2=O)C[C@@](O)(C(=O)CO)C[C@@H]3O[C@H]1C[C@H](N)[C@H](O)[C@H](C)O1 [doxorubicin] | 0.1 µM | 0.6 µM | 20 | partially inhibited angiogenesis in all but one CAM | completely inhibited | – | – | – | 4 | 5 | 3 | number of eggs (CAM's) with antiangiogenic activity None (score 0) ([3]; 2.0% w/w in PCL pellet): 1; inhibition of angiogenesis in the CAM, in words ([3]; 5% (w/w to PCL)): partial to full inhibition of angiogenesis
CC[C@@]1(O)C(=O)OCc2c1cc1n(c2=O)Cc2cc3ccccc3nc2-1 [camptothecin] | – | – | – | extensive inhibition of angiogenesis | – | 6 | 4 | – | – | 12 | 20 | IC50 ([1]; 48 h): 0.065 µM; IC50 ([2]; A7R5, 48 h): 1.6 µM; number of eggs (CAM's) with antiangiogenic activity None (score 0) ([3]; 0.1% w/w in PCL pellet): 7; number of eggs (CAM's) with antiangiogenic activity Partial (score 1-2) ([3]; 0.1% w/w in PCL pellet): 1; inhibition of angiogenesis in the CAM, in words ([3]; 0.5% (w/w to PCL)): strong evidence of inhibition of angiogenesis; number of eggs (CAM's) with antiangiogenic activity Maximal (score 3) ([3]; 0.5% w/w in PCL pellet): 2; number of eggs (CAM's) with antiangiogenic activity None (score 0) ([3]; 0.5% w/w in PCL pellet): 8; number of CAM's with full or partial inhibition ([3]; 5% (w/w to PCL)): 29; number of eggs (CAM's) with antiangiogenic activity Maximal (score 3) ([3]; 5.0% w/w in PCL pellet): 9; number of eggs (CAM's) with antiangiogenic activity None (score 0) ([3]; 5.0% w/w in PCL pellet): 3; IL-1 induced collagenase gene expression (collagenase gene; 1×10^−7 M): almost completely inhibited
